Results taken from US9738634B2, “Heterocyclic amide compound and herbicide” (SYNGENTA PARTICIPATIONS AG, priority 2013, dated 2017).

What was measured:
Type in all cases: in vivo
[1] = tested on: beet; experiment: Test Example 3: soil treatment, effect on crop; f: beet; conditions: soil treatment, treatment dosage 320 g/ha
In short: (§1)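 Crop and weed responses were judged three weeks after a uniform surface spray of the water-diluted emulsion at the given g/ha rate. Seeds sat beneath about 1.5 cm of sterilized diluvial soil, and boxes stood in a greenhouse at 25 to 30° C.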

[2] = tested on: fig-leafed goosefoot; experiment: Test Example 3: weedkilling efficacy through soil treatment; M: fig-leafed goosefoot; conditions: soil treatment, treatment dosage 320 g/ha
In short: as §1

[3] = tested on: oval-leafed pondweed; experiment: Test Example 1: weedkilling efficacy, preemergent weed treatment in the submerged state; C: oval-leafed pondweed; conditions: treatment dosage 320 g/ha
In short: (§2)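 Pots of alluvial soil were flooded to a 4 cm depth. Mixed weed seeds were sown and 2.5 leaf-stage rice seedlings transplanted. On sowing day, water-diluted emulsion was applied to the water surface (dose in g/ha). After 3 weeks at 25–30 °C, effects were rated.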

[4] = tested on: barnyard grass; experiment: Test Example 3: weedkilling efficacy through soil treatment; F: barnyard grass; conditions: soil treatment, treatment dosage 320 g/ha
In short: as §1

[5] = tested on: Indian mallow; experiment: Test Example 3: weedkilling efficacy through soil treatment; K: Indian mallow; conditions: soil treatment, treatment dosage 320 g/ha
In short: as §1

[6] = tested on: birds-eye speedwell; experiment: Test Example 3: weedkilling efficacy through soil treatment; p: birds-eye speedwell; conditions: soil treatment, treatment dosage 320 g/ha
In short: as §1

[7] = tested on: black-grass; experiment: Test Example 3: weedkilling efficacy through soil treatment; H: black-grass; conditions: soil treatment, treatment dosage 320 g/ha
In short: as §1

[8] = tested on: directly sown rice; experiment: Test Example 3: soil treatment, effect on crop; b: directly sown rice; conditions: soil treatment, treatment dosage 320 g/ha
In short: as §1

[9] = tested on: green foxtail; experiment: Test Example 3: weedkilling efficacy through soil treatment; E: green foxtail; conditions: soil treatment, treatment dosage 320 g/ha
In short: as §1

[10] = tested on: soybean; experiment: Test Example 3: soil treatment, effect on crop; d: soybean; conditions: soil treatment, treatment dosage 320 g/ha
In short: as §1

[11] = tested on: catchweed; experiment: Test Example 3: weedkilling efficacy through soil treatment; O: catchweed; conditions: soil treatment, treatment dosage 320 g/ha
In short: as §1

[12] = tested on: barnyard grass; experiment: Test Example 2: weedkilling efficacy, growth period weed treatment in the submerged state; A: barnyard grass; conditions: treatment dosage 320 g/ha
In short: (§3)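 Weeds treated at the 1-2 leaf stage by application of diluted emulsion onto floodwater (4 cm depth, alluvial soil) at specified g/ha. Grown in greenhouse at 25 to 30° C; herbicidal effect rated three weeks after treatment.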

[13] = tested on: transplanted rice; experiment: Test Example 1: preemergent weed treatment in the submerged state, effect on crop; a: transplanted rice; conditions: treatment dosage 320 g/ha
In short: as §2

[14] = tested on: bulrush; experiment: Test Example 1: weedkilling efficacy, preemergent weed treatment in the submerged state; B: bulrush; conditions: treatment dosage 320 g/ha
In short: as §2

[15] = tested on: Italian ryegrass; experiment: Test Example 3: weedkilling efficacy through soil treatment; I: Italian ryegrass; conditions: soil treatment, treatment dosage 320 g/ha
In short: as §1

[16] = tested on: barnyard grass; experiment: Test Example 1: weedkilling efficacy, preemergent weed treatment in the submerged state; A: barnyard grass; conditions: treatment dosage 320 g/ha
In short: as §2

[17] = tested on: wild oat; experiment: Test Example 3: weedkilling efficacy through soil treatment; G: wild oat; conditions: soil treatment, treatment dosage 320 g/ha
In short: as §1

[18] = tested on: redroot pigweed; experiment: Test Example 3: weedkilling efficacy through soil treatment; L: redroot pigweed; conditions: soil treatment, treatment dosage 320 g/ha
In short: as §1

[19] = tested on: corn; experiment: Test Example 3: soil treatment, effect on crop; c: corn; conditions: soil treatment, treatment dosage 320 g/ha
In short: as §1

[20] = tested on: common wind-grass; experiment: Test Example 3: weedkilling efficacy through soil treatment; J: common wind-grass; conditions: soil treatment, treatment dosage 320 g/ha
In short: as §1

[21] = tested on: bulrush; experiment: Test Example 2: weedkilling efficacy, growth period weed treatment in the submerged state; B: bulrush; conditions: treatment dosage 320 g/ha
In short: as §3

[22] = tested on: crabgrass; experiment: Test Example 3: weedkilling efficacy through soil treatment; D: crabgrass; conditions: soil treatment, treatment dosage 320 g/ha
In short: as §1

[23] = tested on: wheat; experiment: Test Example 3: soil treatment, effect on crop; e: wheat; conditions: soil treatment, treatment dosage 320 g/ha
In short: as §1

[24] = tested on: chickweed; experiment: Test Example 3: weedkilling efficacy through soil treatment; N: chickweed; conditions: soil treatment, treatment dosage 320 g/ha
In short: as §1

[25] = tested on: oval-leafed pondweed; experiment: Test Example 2: weedkilling efficacy, growth period weed treatment in the submerged state; C: oval-leafed pondweed; conditions: treatment dosage 320 g/ha
In short: as §3

[26] = tested on: rapeseed; experiment: Test Example 3: soil treatment, effect on crop; g: rapeseed; conditions: soil treatment, treatment dosage 320 g/ha
In short: as §1

## COc1cc(Cl)cc(NC(=O)C(C)(C)N2COCN(c3ccccc3)C2=O)n1 [A-2-32]
[1]
  f: beet, effect on crop grade: 4 (weed kill ratio 70% or more, less than 90%)
[2]
  M: fig-leafed goosefoot, weedkilling efficacy grade: 5 (weed kill ratio 90% or more, (practically complete withering))
[3]
  C: oval-leafed pondweed, weed kill grade: 5 (weed kill ratio 90% or more, (practically complete withering))
[4]
  F: barnyard grass, weedkilling efficacy grade: 5 (weed kill ratio 90% or more, (practically complete withering))
[5]
  K: Indian mallow, weedkilling efficacy grade: 0 (weed kill ratio 5% or less (practically no effect))
[6]
  P: birds-eye speedwell, weedkilling efficacy grade: 5 (weed kill ratio 90% or more, (practically complete withering))
[7]
  H: black-grass, weedkilling efficacy grade: 5 (weed kill ratio 90% or more, (practically complete withering))
[8]
  b: directly sown rice, effect on crop grade: 2 (weed kill ratio 20% or more, less than 40%)
[9]
  E: green foxtail, weedkilling efficacy grade: 5 (weed kill ratio 90% or more, (practically complete withering))
[10]
  d: soybean, effect on crop grade: 0 (weed kill ratio 5% or less (practically no effect))
[11]
  O: catchweed, weedkilling efficacy grade: 5 (weed kill ratio 90% or more, (practically complete withering))
[12]
  A (barnyard grass) weedkilling efficacy grade: 5 (weed kill ratio 90% or more, (practically complete withering))
[13]
  a: transplanted rice, effect on crop grade: 4 (weed kill ratio 70% or more, less than 90%)
[14]
  B: bulrush, weed kill grade: 5 (weed kill ratio 90% or more, (practically complete withering))
[15]
  I: Italian ryegrass, weedkilling efficacy grade: 5 (weed kill ratio 90% or more, (practically complete withering))
[16]
  A: barnyard grass, weed kill grade: 5 (weed kill ratio 90% or more, (practically complete withering))
[17]
  G: wild oat, weedkilling efficacy grade: 5 (weed kill ratio 90% or more, (practically complete withering))
[18]
  L: redroot pigweed, weedkilling efficacy grade: 3 (weed kill ratio 40% or more, less than 70%)
[19]
  c: corn, effect on crop grade: 1 (weed kill ratio 5% or more, less than 20%)
[20]
  J: common wind-grass, weedkilling efficacy grade: 5 (weed kill ratio 90% or more, (practically complete withering))
[21]
  B (bulrush) weedkilling efficacy grade: 5 (weed kill ratio 90% or more, (practically complete withering))
[22]
  D: crabgrass, weedkilling efficacy grade: 5 (weed kill ratio 90% or more, (practically complete withering))
[23]
  e: wheat, effect on crop grade: 0 (weed kill ratio 5% or less (practically no effect))
[24]
  N: chickweed, weedkilling efficacy grade: 4 (weed kill ratio 70% or more, less than 90%)
[25]
  C (oval-leafed pondweed) weedkilling efficacy grade: 5 (weed kill ratio 90% or more, (practically complete withering))
[26]
  g: rapeseed, effect on crop grade: 4 (weed kill ratio 70% or more, less than 90%)
